Source: patent publication US11584749B2, “Phosphor-tetrazine compound and use thereof” (Spark Biopharma, Inc., priority 2018, dated 2023)

Legend:
[1] = test system: mitochondria (HeLa cells); test: Fluorescence imaging of mitochondria in living HeLa cells pre-treated with TPP-TCO; type: cell-based, human
Experimental: (§1) The fluorescence imaging test was performed using a DeltaVision Elite imaging system of GE Healthcare, and an Olympus IX-71 microscope was used.
In order to confirm the fluorescence imaging of mitochondria in living cells, it was tested by the following method.
HeLa cells were incubated for 1 hour in the presence or absence of triphenylphosphonium (TPP)-TCO, and then HeLa cells were washed and treated with the compound of Example 5 or Example 6.
In addition, in order to confirm the selectivity of TPP-TCO and Example 5, and TPP-TCO and Example 6 for mitochondria, HeLa cells were treated with MitoTracker Deep Red, a mitochondria coloring dye, As a result, it was observed that the position of the fluorescence signal of MitoTracker Deep Red was consistent with that of Example 5 or Example 6.

[2] = test system: microtubule (HeLa human cervical cancer cells); test: Fluorescence bio-imaging of microtubule in fixed HeLa cells pre-treated with Docetaxel-TCO conjugate; type: cell-based
Experimental: as §1
Docetaxel-TCO conjugate (Dox-TCO) was used for fluorescence bio-imaging of microtubule. HeLa human cervical cancer cells were fixed, and cultured with Dox-TCO for 1 hour, and then washed with PBS.

How did the “position of fluorescence signal versus MitoTracker Deep Red” value ([1]; HeLa cells, TPP-TCO and compound) turn out when CCN(CC)c1ccc(-c2c3c(n4ccc(-c5nnc(C)nn5)cc24)C(=O)N(CCCN2CCN(C)CC2)C3)cc1 [Example 6, 9-(4-(diethylamino)phenyl)-7-(6-methyl-1,2,4,5-tetrazin-3-yl)-2-(3-(4-methylpiperazin-1-yl)propyl)-1,2-dihydro-3H-pyrrolo[3,4-b]indolizin-3-one] was run?
The value was “consistent”.

And the fluorescence mitochondria image ([1]; living HeLa cells treated with TPP-TCO for 1 hour, then compound)?
The fluorescence mitochondria image was “a clear fluorescence mitochondria image was observed”.

What about the “fluorescence expression intensity in the extracellular region” value ([1]; living HeLa cells treated with TPP-TCO, then compound) of the same compound?
The value was 0.

What about the “fluorescence signal on addition to cells” value ([2]; fixed HeLa cells cultured with Dox-TCO for 1 hour, washed with PBS) of the same compound?
The value was “a bright fluorescence signal was generated”.

What about the “specificity of staining, immunofluorescence with α-tubulin antibody” value ([2]; fixed HeLa cells, Dox-TCO) of the same compound?
The value was “microtubule specific staining”.
